Laboratory results as given in ChEMBL document CHEMBL4130536, “Deinococcucins A-D, Aminoglycolipids from Deinococcus sp., a Gut Bacterium of the Carpenter Ant Camponotus japonicus” (J Nat Prod, 2017).

Columns and labels:
Aspergillus fumigatus = experiment: Antimicrobial activity against Aspergillus fumigatus incubated for 24 hrs; format: functional
A549 = experiment: Cytotoxicity in human A549 cells assessed as reduction in cell viability incubated for 72 hrs by SRB assay; format: functional, cell-based; conditions: A549, 72 h
HCT-116 = experiment: Cytotoxicity in human HCT116 cells assessed as reduction in cell viability incubated for 72 hrs by SRB assay; format: functional, cell-based; conditions: HCT-116, 72 h
SK-HEP1 = experiment: Cytotoxicity in human SKHEP1 cells assessed as reduction in cell viability incubated for 72 hrs by SRB assay; format: functional, cell-based; conditions: SK-HEP1, 72 h
[1] = Toxicity in mouse Hepa1c1c7 cells at 2.5 to 20 uM; format: cell-based
SNU-638 = experiment: Cytotoxicity in human SNU638 cells assessed as reduction in cell viability incubated for 72 hrs by SRB assay; format: functional, cell-based; conditions: SNU-638, 72 h
Candida albicans = experiment: Antimicrobial activity against Candida albicans incubated for 24 hrs; format: functional
Proteus hauseri = experiment: Antimicrobial activity against Proteus hauseri incubated for 24 hrs; format: functional
Staphylococcus aureus = experiment: Antimicrobial activity against Staphylococcus aureus incubated for 24 hrs; format: functional
K562 = experiment: Cytotoxicity in human K562 cells assessed as reduction in cell viability incubated for 72 hrs by SRB assay; format: functional, cell-based; conditions: K562, 72 h
Salmonella enterica = experiment: Antimicrobial activity against Salmonella enterica incubated for 24 hrs; format: functional
Kocuria rhizophila = experiment: Antimicrobial activity against Kocuria rhizophila incubated for 24 hrs; format: functional
MDA-MB-231 = experiment: Cytotoxicity in human MDA-MB-231 cells assessed as reduction in cell viability incubated for 72 hrs by SRB assay; format: functional, cell-based; conditions: MDA-MB-231, 72 h
Escherichia coli = experiment: Antimicrobial activity against Escherichia coli incubated for 24 hrs; format: functional
Bacillus subtilis = experiment: Antimicrobial activity against Bacillus subtilis incubated for 24 hrs; format: functional

MIC (Aspergillus fumigatus)	MIC (Candida albicans)	MIC (Proteus hauseri)	MIC (Staphylococcus aureus)	MIC (Salmonella enterica)	MIC (Kocuria rhizophila)	MIC (Escherichia coli)	MIC (Bacillus subtilis)	SMILES	IC50 (A549)	IC50 (HCT-116)	IC50 (SK-HEP1)	Activity [1]	IC50 (SNU-638)	IC50 (K562)	IC50 (MDA-MB-231)
> 128 µM	> 128 µM	> 128 µM	> 128 µM	> 128 µM	> 128 µM	> 128 µM	> 128 µM	CCCCCCCCCCCCCCCCNC(=O)[C@H](O)CO[C@H]1O[C@H](CO)[C@@H](O)[C@H](O)[C@H]1NC(C)=O	> 10 µM	> 10 µM	> 10 µM	Non-Toxic	> 10 µM	> 10 µM	> 10 µM
> 128 µM	> 128 µM	> 128 µM	> 128 µM	> 128 µM	> 128 µM	> 128 µM	> 128 µM	CCCCCC/C=C\CCCCCCCCNC(=O)[C@H](O)CO[C@H]1O[C@H](CO)[C@@H](O)[C@H](O)[C@H]1NC(C)=O	> 10 µM	> 10 µM	> 10 µM	Non-Toxic	> 10 µM	> 10 µM	> 10 µM
> 128 µM	> 128 µM	> 128 µM	> 128 µM	> 128 µM	> 128 µM	> 128 µM	> 128 µM	CCCCCCCCCCCCCCCCCNC(=O)[C@H](O)CO[C@H]1O[C@H](CO)[C@@H](O)[C@H](O)[C@H]1NC(C)=O	> 10 µM	> 10 µM	> 10 µM	–	> 10 µM	> 10 µM	> 10 µM
> 128 µM	> 128 µM	> 128 µM	> 128 µM	> 128 µM	> 128 µM	> 128 µM	> 128 µM	CCCCCCC/C=C\CCCCCCCCNC(=O)[C@H](O)CO[C@H]1O[C@H](CO)[C@@H](O)[C@H](O)[C@H]1NC(C)=O	> 10 µM	> 10 µM	> 10 µM	–	> 10 µM	> 10 µM	> 10 µM
